Test [1] has as its target T1, SARS-CoV-2 PLpro (nsp3 1564–1878) (Severe acute respiratory syndrome coronavirus 2, UniProt P0DTD1). Description: biochemical. The arrangement: FRET-quenched peptide (Pro3) cleavage by PLpro, 10 min pre-incubation, slope over 20 min, normalised to no-compound control. The conditions noted are these: low concentration screen, read-out: % of control remaining.
In test [2] the target is T1, SARS-CoV-2 PLpro (nsp3 1564–1878). Nature of the test: biochemical. The arrangement: FRET-quenched peptide (Pro3) cleavage by PLpro, 10 min pre-incubation, slope over 20 min, normalised to no-compound control. The conditions noted are these: high concentration screen, read-out: % of control remaining.

Where a name gives a salt, the structure may show the parent alone. Read-outs that look alike come from different tables or passages of the source.

The results in this text go back to paper PMC8286840, “Identifying SARS-CoV-2 antiviral compounds by screening for small molecule inhibitors of Nsp3 papain-like protease” (Biochemical Journal, 2021).

`CC(C)OC(=O)C(C)(C)Oc1ccc(C(=O)c2ccc(Cl)cc2)cc1` [Fenofibrate]: the remaining activity at 1.25 µM in test [1] (Well no.=421) was 97.6%; in test [1] (Well no.=2084), 99.9%. Further, the remaining activity at 3.75 µM in test [2] (Well no.=421) came to 101%; in test [2] (Well no.=2084), 102%.
With `CC(C)(Oc1ccc(C(=O)c2ccc(Cl)cc2)cc1)C(=O)O` [Fenofibric acid], the remaining activity at 1.25 µM in test [1] (Well no.=8204) came out at 106%. Also, in test [2] (Well no.=8204), the remaining activity at 3.75 µM was found to be 104%.
Turning to `Oc1ccc(C2CNCCc3c2cc(O)c(O)c3Cl)cc1` (stereo not drawn) [Fenoldopam (mesylate)], the remaining activity at 1.25 µM in test [1] (Well no.=6267) amounted to 106%. Further, the remaining activity at 3.75 µM in test [2] (Well no.=6267) turned out to be 103%.
Regarding `Oc1ccc(C2CNCCc3c2cc(O)c(O)c3Cl)cc1` (stereo not drawn) [Fenoldopam bromide], in test [1] (Well no.=757), the remaining activity at 1.25 µM came to 98.2%. Besides, the remaining activity at 3.75 µM in test [2] (Well no.=757) was determined as 96.8%.
On to `CC(C(=O)O)c1cccc(Oc2ccccc2)c1` (stereo not drawn) [Fenoprofen], for which, in test [1] (Well no.=2082), the remaining activity at 1.25 µM was determined as 98.6%. Besides, the remaining activity at 3.75 µM in test [2] (Well no.=2082) turned out to be 99.2%.
Take `CC(Cc1ccc(O)cc1)NCC(O)c1cc(O)cc(O)c1` (stereo not drawn) [Fenoterol hydrobromide]: the remaining activity at 1.25 µM in test [1] (Well no.=705) is 104%. In addition, the remaining activity at 3.75 µM in test [2] (Well no.=705) is 100%.
As for `CC1=C(/C=C/C(C)=C/C=C/C(C)=C/C(=O)Nc2ccc(O)cc2)C(C)(C)CCC1` [Fenretinide], in test [1] (Well no.=1577), the remaining activity at 1.25 µM came to 92.1%. Besides, the remaining activity at 3.75 µM in test [2] (Well no.=1577) came to 92.2%.
As for `O=C1NCC2(CCN(CCc3ccccc3)CC2)O1` [Fenspiride (Hydrochloride)], the remaining activity at 1.25 µM in test [1] (Well no.=6705) was 104%. Besides, in test [2] (Well no.=6705), the remaining activity at 3.75 µM amounted to 100%.
As to `O=C1NCC2(CCN(CCc3ccccc3)CC2)O1` [Fenspiride hydrochloride], the remaining activity at 1.25 µM in test [1] (Well no.=469) is 99.1%. For the same compound, the remaining activity at 3.75 µM in test [2] (Well no.=469) was determined as 103%.
For `O=C(O)Cc1sc(-c2ccccc2)nc1-c1ccc(Cl)cc1` [Fentiazac], the remaining activity at 1.25 µM in test [1] (Well no.=1772) was determined as 100%. For the same compound, the remaining activity at 3.75 µM in test [2] (Well no.=1772) is 97.2%.
With `Clc1ccc(C(Cn2ccnc2)OCc2ccc(Sc3ccccc3)cc2)c(Cl)c1` (stereo not drawn) [Fenticonazole nitrate], the remaining activity at 1.25 µM in test [1] (Well no.=5044) was found to be 96.2%. Besides, the remaining activity at 3.75 µM in test [2] (Well no.=5044) worked out at 95.9%.
For the compound `C/C1=C/CCC(C)(O)/C=C\C(C(C)C)C(OC(=O)c2ccc(O)cc2)C1` (stereo not drawn) [Feroline], in test [1] (Well no.=3493), the remaining activity at 1.25 µM came out at 101%. Also, the remaining activity at 3.75 µM in test [2] (Well no.=3493) turned out to be 99.5%.
Take `CCOC(=O)c1ccc(NC2CCCCC2)c(N)c1` [Ferrostatin-1]: in test [1] (Well no.=6252), the remaining activity at 1.25 µM is 103%. For the same compound, the remaining activity at 3.75 µM in test [2] (Well no.=6252) turned out to be 98%.
As for `COc1cc(/C=C/C(=O)O)ccc1O` [Ferulic acid (sodium)], in test [1] (Well no.=8535), the remaining activity at 1.25 µM came to 107%. Also, in test [2] (Well no.=8535), the remaining activity at 3.75 µM was found to be 106%.
Turning to `CCOC(=O)/C=C/c1ccc(O)c(OC)c1` [Ferulic acid ethylester], the remaining activity at 1.25 µM in test [1] (Well no.=3853) turned out to be 97.6%. For the same compound, in test [2] (Well no.=3853), the remaining activity at 3.75 µM turned out to be 103%.
Turning to `COc1cc(/C=C/C(=O)O)ccc1O` [Ferulic acid], in test [1] (Well no.=3518), the remaining activity at 1.25 µM was found to be 98.9%. In addition, the remaining activity at 3.75 µM in test [2] (Well no.=3518) turned out to be 100%.
On to `Cc1c(CC(=O)O)c2cccnc2n1Cc1ccc(S(C)(=O)=O)cc1C(F)(F)F` [Fevipiprant], for which the remaining activity at 1.25 µM in test [1] (Well no.=7767) is 106%. The remaining activity at 3.75 µM in test [2] (Well no.=7767) came out at 106%.
For `COC(=O)/C=C/c1cccc(N(Cc2ccc(-c3ccc(N(C)C)cc3)cc2)C(=O)C2CCCCC2)c1` [Fexaramine], the remaining activity at 1.25 µM in test [1] (Well no.=5559) came to 97.4%. For the same compound, the remaining activity at 3.75 µM in test [2] (Well no.=5559) amounted to 104%.
As to `CC(C)(C(=O)O)c1ccc(C(O)CCCN2CCC(C(O)(c3ccccc3)c3ccccc3)CC2)cc1` (stereo not drawn) [Fexofenadine (hydrochloride)], the remaining activity at 1.25 µM in test [1] (Well no.=6619) is 104%. Besides, the remaining activity at 3.75 µM in test [2] (Well no.=6619) worked out at 105%.
As to `CC(C)(C(=O)O)c1ccc(C(O)CCCN2CCC(C(O)(c3ccccc3)c3ccccc3)CC2)cc1` (stereo not drawn) [Fexofenadine hydrochloride], the remaining activity at 1.25 µM in test [1] (Well no.=425) was found to be 93.1%. For the same compound, in test [2] (Well no.=425), the remaining activity at 3.75 µM amounted to 92.8%.
For the compound `COc1cccc2c1[C@@H]1CN(CCCCn3c(=O)[nH]c4c(sc5ncc(-c6ccccc6)nc54)c3=O)C[C@@H]1CO2` [Fiduxosin hydrochloride], the remaining activity at 1.25 µM in test [1] (Well no.=611) came to 97.2%. In addition, the remaining activity at 3.75 µM in test [2] (Well no.=611) came out at 97.4%.
`COc1cc(C(=O)OC2CC3CCC(C2)N3C)ccc1O` (stereo not drawn) [Fillalbin]: in test [1] (Well no.=3539), the remaining activity at 1.25 µM amounted to 92.8%. Besides, in test [2] (Well no.=3539), the remaining activity at 3.75 µM is 97.4%.
`CCCCc1nc(C)c(CC(=S)N(C)C)c(=O)n1Cc1ccc(-c2ccccc2-c2nnn[nH]2)cc1` [Fimasartan]: the remaining activity at 1.25 µM in test [1] (Well no.=6183) worked out at 107%. For the same compound, in test [2] (Well no.=6183), the remaining activity at 3.75 µM came to 103%.
Turning to `CC(C)(C)NC(=O)[C@H]1CC[C@H]2[C@@H]3CC[C@H]4NC(=O)C=C[C@]4(C)[C@H]3CC[C@]12C` [Finasteride], the remaining activity at 1.25 µM in test [1] (Well no.=2086) was 99%. For the same compound, the remaining activity at 3.75 µM in test [2] (Well no.=2086) was found to be 104%.
Take `CCOCc1cc(OC)c(-c2ccc(C[C@H](NC(=O)c3c(F)cccc3F)C(=O)O)cc2)c(OC)c1` [Firategrast]: the remaining activity at 1.25 µM in test [1] (Well no.=7930) worked out at 103%. Moreover, in test [2] (Well no.=7930), the remaining activity at 3.75 µM is 99%.
For the compound `O=c1c(O)c(-c2ccc(O)c(O)c2)oc2cc(O)ccc12` [Fisetin], the remaining activity at 1.25 µM in test [1] (Well no.=3443) worked out at 91.4%; in test [1] (Well no.=6254), 104%. In addition, the remaining activity at 3.75 µM came out at 95% in test [2] (Well no.=3443) and 99.6% in test [2] (Well no.=6254).
Regarding `O=C1C[C@@H](c2ccc(O)c(O)c2)Oc2c1ccc(O[C@@H]1O[C@H](CO)[C@@H](O)[C@H](O)[C@H]1O)c2O` [Flavanomarein], the remaining activity at 1.25 µM in test [1] (Well no.=3805) came out at 96.3%. For the same compound, in test [2] (Well no.=3805), the remaining activity at 3.75 µM came out at 100%.
Turning to `COc1ccc(/C=C/C(=O)c2c(O)cc(OC)cc2OC)cc1` [Flavokawain A], the remaining activity at 1.25 µM in test [1] (Well no.=3607) was determined as 104%. The remaining activity at 3.75 µM in test [2] (Well no.=3607) stood at 105%.
Turning to `COc1cc(O)c(C(=O)/C=C/c2ccccc2)c(OC)c1` [Flavokawain B], the remaining activity at 1.25 µM in test [1] (Well no.=3685) is 98.5%. Further, in test [2] (Well no.=3685), the remaining activity at 3.75 µM was 100%.
Consider `Cc1c(-c2ccccc2)oc2c(C(=O)OCCN3CCCCC3)cccc2c1=O` [Flavoxate (hydrochloride)], for which, in test [1] (Well no.=6803), the remaining activity at 1.25 µM is 94.8%. For the same compound, the remaining activity at 3.75 µM in test [2] (Well no.=6803) turned out to be 94.8%.
Consider `Cc1c(-c2ccccc2)oc2c(C(=O)OCCN3CCCCC3)cccc2c1=O` [Flavoxate HCl], for which the remaining activity at 1.25 µM in test [1] (Well no.=5084) came to 99%. For the same compound, the remaining activity at 3.75 µM in test [2] (Well no.=5084) came out at 102%.
